# Several values for one entry are separate records, joined by “and”; a condition that tells them apart may be missing. Identical values can stand only once. Toxic doses and inconclusive results are not listed.
# System: P388 leukemia ip, CD2F1 mice, survival T/C
# Test: NCI In Vivo Anticancer Drug Screen. Data for tumor model P388 Leukemia (intraperitoneal) in CD2F1 (CDF1) mice
# Details: endpoint: median survival time, higher = longer survival
# Outline: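 Mice carrying the transplanted tumor received test compound or vehicle. Survival was recorded in each group, and the value is the treated-group measurement divided by that of the vehicle-treated control group.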
# [1] = dose: 50.0 mg/kg/injection, schedule: Q01DX005 (ip), vehicle: saline with Tween-80
# [2] = dose: 100.0 mg/kg/injection, schedule: Q01DX005 (ip), vehicle: saline with Tween-80
# [3] = dose: 200.0 mg/kg/injection, schedule: Q01DX005 (ip), vehicle: saline with Tween-80
# [4] = dose: 100.0 mg/kg/injection, schedule: Q04DX002 (ip), vehicle: saline with Tween-80
# [5] = dose: 60.0 mg/kg/injection, schedule: Q01DX005 (ip), vehicle: Klucel (hydroxypropylcellulose) (HPC)
# [6] = dose: 120.0 mg/kg/injection, schedule: Q01DX005 (ip), vehicle: Klucel (hydroxypropylcellulose) (HPC)
# [7] = dose: 240.0 mg/kg/injection, schedule: Q01DX005 (ip), vehicle: Klucel (hydroxypropylcellulose) (HPC)
# [8] = dose: 50.0 mg/kg/injection, schedule: Q01DX009 (ip), vehicle: Klucel (hydroxypropylcellulose) (HPC)
# [9] = dose: 100.0 mg/kg/injection, schedule: Q01DX009 (ip), vehicle: Klucel (hydroxypropylcellulose) (HPC)
# [10] = dose: 200.0 mg/kg/injection, schedule: Q01DX009 (ip), vehicle: Klucel (hydroxypropylcellulose) (HPC)
# [11] = dose: 60.0 mg/kg/injection, schedule: Q01DX005 (ip), vehicle: saline with Tween-80
# [12] = dose: 120.0 mg/kg/injection, schedule: Q01DX005 (ip), vehicle: saline with Tween-80
# [13] = dose: 240.0 mg/kg/injection, schedule: Q01DX005 (ip), vehicle: saline with Tween-80
# [14] = dose: 100.0 mg/kg/injection, schedule: Q04DX003 (ip), vehicle: saline with Tween-80
# [15] = dose: 25.0 mg/kg/injection, schedule: Q01DX009 (ip), vehicle: water
# [16] = dose: 50.0 mg/kg/injection, schedule: Q01DX009 (ip), vehicle: water
# [17] = dose: 100.0 mg/kg/injection, schedule: Q01DX009 (ip), vehicle: water
# [18] = dose: 200.0 mg/kg/injection, schedule: Q01DX009 (ip), vehicle: water
structure (smiles),measurement,setting,value
NC(=Nc1ccc(S(=O)(=O)Nc2cnc3ccccc3n2)cc1)/N=C(/N)Nc1ccc(Br)cc1,T/C,[1],99 % of control
same,T/C,[2],100 % of control
same,T/C,[3],99 % of control
NC(=O)N/N=C1\CCCCC12CCCC2,T/C,[4],102 % of control
same,T/C,"dose: 200.0 mg/kg/injection, schedule: Q04DX002 (ip), vehicle: saline with Tween-80",102 % of control
same,T/C,"dose: 400.0 mg/kg/injection, schedule: Q04DX002 (ip), vehicle: saline with Tween-80",100 % of control
C=C1C(=O)OC2C(OC(=O)C(C)C)CCCC12 (configuration not stated),T/C,[5],105 % of control
same,T/C,[6],100 % of control
same,T/C,[7],102 % of control
COc1ccc2c(c1)N(C(=O)CN1CCN(C)CC1)c1ccccc1S2,T/C,"dose: 25.0 mg/kg/injection, schedule: Q04DX002 (ip), vehicle: saline",99 % of control
same,T/C,"dose: 50.0 mg/kg/injection, schedule: Q04DX002 (ip), vehicle: saline",102 % of control
same,T/C,[4],100 % of control
same,T/C,"dose: 100.0 mg/kg/injection, schedule: Q04DX002 (ip), vehicle: saline",99 % of control
CON(Cc1ccc(C(=O)NC(C)C)cc1)Cc1ccc(C(=O)NC(C)C)cc1,T/C,"dose: 25.0 mg/kg/injection, schedule: Q01DX009 (ip), vehicle: other",94 % of control
same,T/C,"dose: 50.0 mg/kg/injection, schedule: Q01DX009 (ip), vehicle: other",100 % of control
same,T/C,"dose: 100.0 mg/kg/injection, schedule: Q01DX009 (ip), vehicle: other",92 % of control
Cc1[nH]nc2c(C/C=C/c3ccccc3)n[nH]c(=O)c12,T/C,[8],98 % of control
same,T/C,[9],100 % of control
same,T/C,[10],101 % of control
O=C1C(N=Nc2ccc(Cl)cc2)Sc2nc3ccccc3n21 (configuration not stated),T/C,[5],92 % of control
same,T/C,[6],90 % of control
C/C(=N/NS(=O)(=O)c1c(C(C)C)cc(C(C)C)cc1C(C)C)c1cccc2c1OCO2,T/C,"dose: 15.0 mg/kg/injection, schedule: Q01DX005 (ip), vehicle: saline with Tween-80",91 % of control
same,T/C,"dose: 30.0 mg/kg/injection, schedule: Q01DX005 (ip), vehicle: saline with Tween-80",93 % of control
same,T/C,[11],87 % of control and 92 % of control
CCOC(=O)C1=C(Nc2ccc(F)cc2)C(=O)N(C(C)(C)C)C1,T/C,[11],100 % of control
same,T/C,[12],106 % of control
same,T/C,[13],93 % of control
NS(=O)(=O)c1cc([N+](=O)[O-])ccc1C(=O)OC1CCCCC1,T/C,"dose: 50.0 mg/kg/injection, schedule: Q01DX005 (ip), vehicle: Klucel (hydroxypropylcellulose) (HPC)",104 % of control
same,T/C,"dose: 100.0 mg/kg/injection, schedule: Q01DX005 (ip), vehicle: Klucel (hydroxypropylcellulose) (HPC)",113 % of control
same,T/C,"dose: 200.0 mg/kg/injection, schedule: Q01DX005 (ip), vehicle: Klucel (hydroxypropylcellulose) (HPC)",92 % of control
O=C1COc2ccccc2OCCOCCOc2ccccc2OC1,T/C,[11],97 % of control
same,T/C,[12],98 % of control
same,T/C,[13],96 % of control
CC1CCCCC1O (configuration not stated),T/C,"dose: 50.0 mg/kg/injection, schedule: Q04DX003 (ip), vehicle: saline with Tween-80",110 % of control
same,T/C,[14],115 % of control
same,T/C,"dose: 200.0 mg/kg/injection, schedule: Q04DX003 (ip), vehicle: saline with Tween-80",115 % of control
O=NNc1ccc(Oc2ccc(NN=O)cc2)cc1,T/C,"dose: 3.12 mg/kg/injection, schedule: Q01DX009 (ip), vehicle: water",96 % of control
same,T/C,"dose: 6.25 mg/kg/injection, schedule: Q01DX009 (ip), vehicle: water",96 % of control
same,T/C,"dose: 12.5 mg/kg/injection, schedule: Q01DX009 (ip), vehicle: water",92 % of control
same,T/C,[15],100 % of control and 93 % of control
same,T/C,[16],100 % of control and 93 % of control
same,T/C,[17],91 % of control
same,T/C,[18],88 % of control
O=P(OCc1ccccc1)(N(CCCl)CCCl)N1CCN(P(=O)(OCc2ccccc2)N(CCCl)CCCl)CC1 (configuration not stated),T/C,"dose: 100.0 mg/kg/injection, schedule: Q01DX009 (ip), vehicle: saline with Tween-80",150 % of control
same,T/C,[14],116 % of control
COCc1ccnn1-c1ccccc1C,T/C,[11],97 % of control
same,T/C,[12],97 % of control
same,T/C,[13],104 % of control
O=C1NC(=S)NNC12CCCCC2,T/C,"dose: 25.0 mg/kg/injection, schedule: Q01DX009 (ip), vehicle: Klucel (hydroxypropylcellulose) (HPC)",101 % of control
same,T/C,[8],101 % of control and 108 % of control
same,T/C,[9],112 % of control and 97 % of control
same,T/C,[10],105 % of control (2×) and 113 % of control
CN(C)c1ccc2c(=O)c(C(=O)O)c[nH]c2c1,T/C,"dose: 6.25 mg/kg/injection, schedule: Q01DX005 (ip), vehicle: saline",96 % of control
same,T/C,"dose: 12.5 mg/kg/injection, schedule: Q01DX005 (ip), vehicle: saline",100 % of control
same,T/C,"dose: 25.0 mg/kg/injection, schedule: Q01DX005 (ip), vehicle: saline",96 % of control
same,T/C,[15],99 % of control
same,T/C,"dose: 50.0 mg/kg/injection, schedule: Q01DX005 (ip), vehicle: saline",95 % of control
same,T/C,[16],101 % of control
same,T/C,[17],94 % of control
same,T/C,[18],89 % of control
same,T/C,"dose: 400.0 mg/kg/injection, schedule: Q01DX009 (ip), vehicle: water",93 % of control
O=S(=O)(Oc1cccc(C(F)(F)F)c1)c1cccc(C(F)(F)F)c1,T/C,"dose: 6.25 mg/kg/injection, schedule: Q01DX009 (ip), vehicle: saline with Tween-80",100 % of control
same,T/C,"dose: 6.25 mg/kg/injection, schedule: Q04DX003 (ip), vehicle: saline with Tween-80",100 % of control
same,T/C,"dose: 12.5 mg/kg/injection, schedule: Q01DX009 (ip), vehicle: saline with Tween-80",91 % of control
same,T/C,"dose: 12.5 mg/kg/injection, schedule: Q04DX003 (ip), vehicle: saline with Tween-80",100 % of control
same,T/C,"dose: 25.0 mg/kg/injection, schedule: Q01DX009 (ip), vehicle: saline with Tween-80",91 % of control
same,T/C,"dose: 25.0 mg/kg/injection, schedule: Q04DX003 (ip), vehicle: saline with Tween-80",100 % of control
O=C1CCCC2=C1C(c1ccccc1)C1=C(CCCC1=O)O2,T/C,[11],100 % of control
same,T/C,[12],94 % of control
same,T/C,[13],92 % of control
Nn1nnnc1-c1ccccc1,T/C,[8],96 % of control
same,T/C,[9],100 % of control
same,T/C,[10],95 % of control
[CH3][Ge]([CH3])([CH3])[N]=S=[N][Ge]([CH3])([CH3])[CH3],T/C,"dose: 12.5 mg/kg/injection, schedule: Q01DX005 (ip), vehicle: saline with Tween-80",105 % of control
same,T/C,"dose: 25.0 mg/kg/injection, schedule: Q01DX005 (ip), vehicle: saline with Tween-80",100 % of control
same,T/C,[1],99 % of control and 100 % of control
COc1ccc(C2(C)C(C#N)(C#N)C2(C#N)C#N)cc1,T/C,"dose: 18.75 mg/kg/injection, schedule: Q01DX009 (ip), vehicle: saline",103 % of control
same,T/C,"dose: 37.5 mg/kg/injection, schedule: Q01DX009 (ip), vehicle: saline",100 % of control
same,T/C,"dose: 75.0 mg/kg/injection, schedule: Q01DX009 (ip), vehicle: saline",116 % of control
same,T/C,"dose: 150.0 mg/kg/injection, schedule: Q01DX009 (ip), vehicle: saline",111 % of control
Cc1cc(N=Nc2cc(C)c(NC(=O)c3ccc(NC(=O)c4ccc(N)cc4)cc3)cc2C)ccc1N=Nc1ccc2cc(S(=O)(=O)O)cc(S(=O)(=O)O)c2c1,T/C,[1],110 % of control
same,T/C,[2],111 % of control
same,T/C,[3],110 % of control
COc1cccc(C2SCC(=O)N2c2nncs2)c1OC (configuration not stated),T/C,[5],106 % of control
same,T/C,[6],95 % of control
same,T/C,[7],98 % of control
CC1OC(OC23C(=O)CC(C)(O)CC2(O)C=CC2=C3C(=O)c3ccc(C4CC(OC5CCC(OC6CC(O)C(O)C(C)O6)C(C)O5)C(O)C(C)O4)c(O)c3C2=O)CCC1O (configuration not stated),T/C,"dose: 1.0 mg/kg/injection, schedule: Q01DX005 (ip), vehicle: DMSO",104 % of control
same,T/C,"dose: 2.0 mg/kg/injection, schedule: Q01DX005 (ip), vehicle: DMSO",105 % of control
same,T/C,"dose: 4.0 mg/kg/injection, schedule: Q01DX005 (ip), vehicle: DMSO",99 % of control
same,T/C,"dose: 6.25 mg/kg/injection, schedule: Q04DX003 (ip), vehicle: Klucel (hydroxypropylcellulose) (HPC)",100 % of control
same,T/C,"dose: 12.5 mg/kg/injection, schedule: Q04DX003 (ip), vehicle: Klucel (hydroxypropylcellulose) (HPC)",91 % of control
same,T/C,"dose: 25.0 mg/kg/injection, schedule: Q04DX003 (ip), vehicle: Klucel (hydroxypropylcellulose) (HPC)",100 % of control
